Starred links: 1 amine or outer side, 2 acyl side, 3 side chain; linkers in the order of their positions; H or OH if unused. Positions of bridges follow the written chain, without caps; N, C: chain ends. Non-standard residues stand in square brackets, D forms with d. Residues, ends and D or L forms follow the SMILES beside them. Adda = CO[C@@H](Cc1ccccc1)[C@@H](C)/C=C(C)/C=C/[C@H](N[*:1])[C@H](C)C(=O)[*:2]; dAsp(3S-Me) = C[C@H](C(=O)[*:3])[C@@H](N[*:1])C(=O)[*:2]; d(γGlu) = O=C(O)[C@@H](CCC(=O)[*:2])N[*:1]; NMeDha = C=C(NC)C(=O)O
Tests used:
[1] = tested on: SGK1; test: Activation of GST-SGK1 in transfected 293 cells (Example 5); format: cell-based, human
Protocol: (§1) Cells were transiently transfected with DNA constructs expressing (A) GST-SGK1, (B), GST-SGK2α and (C) GST-SGK3. At 24 h after transfection, the cells were deprived of serum for 16 h, then exposed to 50 ng/ml IGF-1 (10 min), 400 ng/ml phorbol myristate acetate (PMA) (30 min), 10% serum (30 min), 1 μM dexamethasone (Dex, 60 min), 2 mM H2O2 (25 min), 5 μg/ml anisomycin (AN, 30 min), 0.4 M sorbitol (30 min), hypotonic stress (1 ml of water added to 3 ml of DMEM, 30 min), UV radiation (30 min after exposure to 200 J/m2) or left untreated (control). After each treatment, the cells were lysed in ice-cold lysis buffer and SGK activity in 100 μg of cell lysate protein was measured.
(§2) FIG. 20. […] Cells were transiently transfected with DNA constructs expressing (A) GST-SGK1, (B) GST-SGK2α and (C) GST-SGK3. At 24 h after transfection, the cells were deprived of serum for 16 h. The transfectants were then pretreated for 10 min with 100 nM wortmannin or for 1 h with 100 μM LY294002 and then stimulated for 25 min with 2 mM H2O2.
(§3) Expression of SGK isoforms in 293 cells. […] After each treatment, the cells were lysed and the activity of SGK isoforms was measured after affinity purification of the GST-fusion proteins on glutathione Sepharose, as described previously for SGK1 [18].

[2] = tested on: SGK2α; test: Activation of GST-SGK2α in transfected 293 cells (Example 5); format: cell-based, human
Protocol: as §1, §2, §3

[3] = tested on: SGK3; test: Activation of GST-SGK3 in transfected 293 cells (Example 5); format: cell-based, human
Protocol: as §1, §2, §3

[4] = tested on: protein phosphatase 2A (PP2A); format: biochemical
[5] = biological target: T1, SGK (Homo sapiens, UniProt O00141); test: Phosphorylation and activation of SGK by PDK1 in vitro; format: biochemical; settings: 1 μM PtdIns(3,4,5)P3, with or without PS/PC lipid vesicles
T1 construct: PEBG-SGK expressing full length SGK; made in house; host or cells: 293 cells
T1 sequence (O00141 whole entry, looked up): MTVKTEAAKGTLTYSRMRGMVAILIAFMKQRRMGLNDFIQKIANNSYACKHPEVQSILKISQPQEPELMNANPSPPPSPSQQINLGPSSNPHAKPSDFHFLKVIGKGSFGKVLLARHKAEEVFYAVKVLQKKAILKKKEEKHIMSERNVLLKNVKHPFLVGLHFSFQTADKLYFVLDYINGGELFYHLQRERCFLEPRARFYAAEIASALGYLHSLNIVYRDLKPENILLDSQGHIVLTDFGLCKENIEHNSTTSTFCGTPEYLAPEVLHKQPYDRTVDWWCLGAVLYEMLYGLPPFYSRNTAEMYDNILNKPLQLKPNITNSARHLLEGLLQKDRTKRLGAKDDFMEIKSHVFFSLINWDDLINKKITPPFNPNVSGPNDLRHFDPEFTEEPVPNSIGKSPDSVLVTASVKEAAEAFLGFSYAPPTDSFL
Protocol: (A) GST-SGK (0.3 μg) was phosphorylated using GST-PDK1 (0.1 μg) and [γ-^32P] ATP (500 cpm/pmol) as described under Methods. Where indicated (+), 1 μM PtdIns(3,4,5)P3 in lipid vesicles containing phosphatidylserine (100 μM) and phosphatidylcholine (100 μM) (PS/PC) were also included. The reactions were stopped by the addition of SDS to 2% and, after heating for 5 min at 95° C., the samples were subjected to electrophoresis on 10% SDS/polyacrylamide gels, stained with Coomasssie blue and then autoradiographed. The positions of the molecular mass markers are also indicated (B) Same as (A), except that unlabelled ATP was used instead of [γ-^32P] ATP. After incubation for 10 min at 30° C., 10 μl aliquots were assayed for SGK activity using Crosstide as substrate. The results are shown ±SD for three separate experiments.
Phosphorylation and assay of SGK. Phosphorylation was carried out at 30° C. in 50 μl incubations containing 50 mM Tris/HCl pH 7.5, 0.1 mM EGTA, 0.1% (v/v) 2-mercaptoethanol, 2.5 μM PKI, 1 μM microcystin-LR, 10 mM magnesium chloride and 100 μM ATP. Where indicated lipid vesicles containing phosphatidylcholine (100 μM), phosphatidyl serine (100 μM) and PtdIns(3,4,5)P3 (1 μM) were also included. SGK activity was assayed exactly as described for PKB [6] using the peptide […] (SEQ. ID. NO:30) (“Crosstide”) at 30 μM as substrate. […]

[6] = biological target: T2, SGK2 (Homo sapiens, UniProt Q9HBY8); test: Activation of SGK2 by PDK1 in vitro; format: biochemical; settings: 10 μM in PS/PC lipid vesicles
T2 construct: pEBG-SGK2α expressing full length of SGK2α; made in house; host or cells: 293 cells
T2 sequence (Q9HBY8 1-367): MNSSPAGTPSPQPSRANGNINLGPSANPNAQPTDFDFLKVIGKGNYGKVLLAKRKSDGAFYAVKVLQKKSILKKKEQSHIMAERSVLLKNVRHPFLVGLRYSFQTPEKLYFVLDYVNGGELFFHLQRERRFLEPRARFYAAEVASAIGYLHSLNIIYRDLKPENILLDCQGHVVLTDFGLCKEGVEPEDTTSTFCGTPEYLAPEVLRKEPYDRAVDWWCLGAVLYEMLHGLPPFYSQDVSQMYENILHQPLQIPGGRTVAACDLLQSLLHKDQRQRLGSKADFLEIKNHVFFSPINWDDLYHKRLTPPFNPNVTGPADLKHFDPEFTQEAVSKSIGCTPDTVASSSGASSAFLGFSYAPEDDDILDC
Protocol: (§4) Each GST-SGK isoform (0.4 μg) was incubated for 20 min at 30° C. with protein phosphatase 2A (PP2A, 30 mU/ml) in a 10 μl incubation containing 20 mM Tris/HCl, pH 7.5, 0.1% (v/v) 2-mercaptoethanol, 0.1 mM EGTA and 1 mg/ml bovine serum albumin. After addition of microcystin-LR to 1 μM to inactivate PP2A, SGK (0.4 μg) was phosphorylated for 30 min at 30° C. in a mixture (20 μl) containing 50 mM Tris/HCl, pH 7.5, 10 mM MgCl2, 0.1% (v/v) 2-mercaptoethanol, 0.1 mM EGTA, GST-PDK1 (0.03–300 ng) diluted in Buffer C and 100 μM unlabelled ATP. SGK assays were initiated by the addition of 30 μl of a mixture containing 50 mM Tris/HCl, pH 7.5, 10 mM MgCl2, 0.1% (v/v) 2-mercaptoethanol, 0.1 mM EGTA, 100 μM [γ-^32P] ATP (500 c.p.m/pmol), 50 μM of the peptide substrate Crosstide ([…]) (SEQ. ID. NO:30) and 4.2 μM of residues 5–24 of the specific protein inhibitor of adenosine 3′5′ cyclic monophosphate-dependent protein kinase. After 10 min at 30° C., the reactions were terminated by spotting aliquots on to P81 phosphocellulose paper, followed by immediate immersion in 75 mM phosphoric acid. The papers were washed, dried and analysed. One unit (U) of SGK was that amount which phosphorylated 1 nmole of Crosstide in one min.

[7] = biological target: T3, SGK3 (Homo sapiens, UniProt Q96BR1); test: Activation of SGK3 by PDK1 in vitro; format: biochemical; settings: 10 μM in PS/PC lipid vesicles
T3 construct: made in house; host or cells: 293 cells
T3 sequence (Q96BR1 68-496 limits assumed): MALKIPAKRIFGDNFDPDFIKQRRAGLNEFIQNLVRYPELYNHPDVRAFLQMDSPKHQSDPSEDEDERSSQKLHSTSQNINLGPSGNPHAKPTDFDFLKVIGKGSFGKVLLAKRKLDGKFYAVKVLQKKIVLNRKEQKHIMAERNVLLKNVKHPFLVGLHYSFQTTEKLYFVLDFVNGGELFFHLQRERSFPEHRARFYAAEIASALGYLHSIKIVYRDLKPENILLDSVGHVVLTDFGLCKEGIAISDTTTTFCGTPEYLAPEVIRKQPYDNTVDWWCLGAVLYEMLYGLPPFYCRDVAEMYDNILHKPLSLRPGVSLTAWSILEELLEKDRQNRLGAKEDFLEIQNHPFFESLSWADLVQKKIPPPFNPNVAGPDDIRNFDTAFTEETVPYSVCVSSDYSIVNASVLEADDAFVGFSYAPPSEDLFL
Protocol: as §4

[8] = IGF-1 50 ng/ml 10 min, H2O2 2 mM 25 min
[9] = 10% serum 30 min, 0.4 M sorbitol 30 min

OO [hydrogen peroxide]
Activation of SGK1 by the stimulus [1, 8]: five fold
Activation of SGK2α by the stimulus [2, 8]: 5 fold
Activation of SGK3 by the stimulus [3, 8]: 5 fold

C=C1C(=O)N[C@H](C)C(=O)N[C@@H](CC(C)C)C(=O)N[C@@H](C(=O)O)[C@H](C)C(=O)N[C@@H](CCCNC(=N)N)C(=O)N[C@@H](/C=C/C(C)=C/[C@H](C)[C@H](Cc2ccccc2)OC)[C@H](C)C(=O)N[C@@H](C(=O)O)CCC(=O)N1C [microcystin, microcystin-LR] (R[Adda][d(γGlu)][NMeDha][dA]L[dAsp(3S-Me)]-OH; lactam N-7)
Effect on inactivation of GST-SGK by PP2A [4]: prevented

OC[C@@H](O)[C@@H](O)[C@H](O)[C@@H](O)CO [sorbitol]
Effect of the stimulus on SGK1 activity (in words) [1, 9]: potently inhibited
Effect of the stimulus on SGK2α activity (in words) [2, 9]: had no effect
Effect of the stimulus on SGK3 activity (in words) [3, 9]: had no effect

PtdIns(3,4,5)P3
Effect on phosphorylation and activation of SGK by PDK1 [5]: unaffected
Effect on activation of SGK2 by PDK1 [6]: slightly inhibited
Effect on activation of SGK3 by PDK1 [7]: slightly inhibited

Reference: US7083511B1, “Methods” (The University of Dundee, priority 1998, dated 2006)
